The text below walks through data of ChEMBL document CHEMBL1134754, “Influence of the terminal amide fragment geometry in some 3-arylideneindolin-2(1H)-ones on their 5-HT1A/5-HT2A receptor activity” (Bioorg Med Chem Lett, 2001).

As usually defined, the ED50 is the midpoint of the dose-response relation. Low readings indicate an effect at a small dose, high ones a need for a large dose. As usually defined, the Ki is a measure of affinity in units of concentration, obtained from inhibition or displacement. The low end stands for tighter binding, the high end for weaker binding.

The subject of test [1] is Mus musculus. Briefly: In vivo effective dose required for inhibiting (+/-)-DOI-induced (2.5 mg/kg, ip) twitches in mice. The test is classed as functional.
Test [2] addresses T1, 5-hydroxytryptamine receptor 1A (Rattus norvegicus, UniProt P19327).
T1 sequence (P19327 whole entry): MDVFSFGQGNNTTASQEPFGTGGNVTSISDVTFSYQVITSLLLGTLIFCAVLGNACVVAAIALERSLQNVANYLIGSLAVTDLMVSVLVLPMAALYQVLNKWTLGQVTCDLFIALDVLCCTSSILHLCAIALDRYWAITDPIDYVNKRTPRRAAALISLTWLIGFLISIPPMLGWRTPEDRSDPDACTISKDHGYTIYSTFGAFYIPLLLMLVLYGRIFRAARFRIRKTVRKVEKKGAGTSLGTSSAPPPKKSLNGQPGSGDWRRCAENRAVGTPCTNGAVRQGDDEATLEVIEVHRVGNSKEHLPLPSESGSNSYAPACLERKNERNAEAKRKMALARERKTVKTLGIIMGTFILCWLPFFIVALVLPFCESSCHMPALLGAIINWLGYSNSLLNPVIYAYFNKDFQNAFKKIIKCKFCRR
In words: Displacement of [3H]8-OH-DPAT from 5-hydroxytryptamine 1A receptor of rat hippocampus. The test is classed as tissue-based.

The target of test [3] is 5-hydroxytryptamine receptor 2A (Rattus norvegicus, UniProt P14842). Briefly: Displacement of [3H]- Ketanserin from rat cortex 5-hydroxytryptamine 2A receptor. For orientation: In a radioligand displacement assay an active substance lowers the binding of a labelled ligand.
Chain of 5-hydroxytryptamine receptor 2A (P14842 whole entry): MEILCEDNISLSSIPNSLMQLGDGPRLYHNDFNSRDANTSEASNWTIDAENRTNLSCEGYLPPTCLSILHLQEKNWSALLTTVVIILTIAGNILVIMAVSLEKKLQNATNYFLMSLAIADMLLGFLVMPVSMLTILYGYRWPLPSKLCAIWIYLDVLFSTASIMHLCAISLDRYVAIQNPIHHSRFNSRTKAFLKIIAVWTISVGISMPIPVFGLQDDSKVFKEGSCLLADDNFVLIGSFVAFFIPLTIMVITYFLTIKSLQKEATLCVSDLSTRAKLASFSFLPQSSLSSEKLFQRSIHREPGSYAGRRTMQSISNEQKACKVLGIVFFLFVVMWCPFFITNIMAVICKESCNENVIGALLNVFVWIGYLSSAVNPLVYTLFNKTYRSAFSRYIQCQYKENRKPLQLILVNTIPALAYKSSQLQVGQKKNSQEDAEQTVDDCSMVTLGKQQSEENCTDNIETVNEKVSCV
Test [4] has as its system Rattus norvegicus. In words: Tested for induction of lower lip retraction(LLR) in rats at 10 mg/kg, ip, given 15 min before the test. The test is classed as functional.
In test [5] the test system is Rattus norvegicus. In words: Dose dependendt inhibition of 8-OH-DPAT(1 mg/kg, sc) induced lower lip retraction(LLR) in rats pre-administered 10 mg/kg ip dose. The test is classed as functional. The conditions noted are these: route intraperitoneal.
In test [6] the test system is Rattus norvegicus. Briefly: Dose dependendt inhibition of 8-OH-DPAT(1 mg/kg, sc) induced lower lip retraction(LLR) in rats pre-administered 20 mg/kg ip dose. The format is functional. The conditions noted are these: route intraperitoneal.
The test system of test [7] is Rattus norvegicus. Briefly: Tested for induction of lower lip retraction(LLR) in rats at 20 mg/kg. The format is functional.
Test [8] relates to Rattus norvegicus. In words: Tested for induction of lower lip retraction(LLR) in rats at 20 mg/kg, ip, given 15 min before the test. The test is classed as functional.

Each structure is given as a SMILES string. Some results are limits rather than exact numbers.

`O=C1/C(=C/c2cccs2)c2ccccc2N1CCCN1CCN(c2cccc(Cl)c2)CC1` yielded a median effective dose (ED50) in test [1] of 16 mg/kg. The values for the Ki in test [2] and in test [3] were over 50000 nM and 64 nM, respectively.
In the same order, the values of `COc1ccc(/C=C2/C(=O)N(CCCN3CCN(c4cccc(Cl)c4)CC3)c3ccccc32)cc1` are 28.5 mg/kg, 538 nM and 20 nM.
In test [1], `COc1ccc(/C=C2\C(=O)N(CCCN3CCN(c4cccc(Cl)c4)CC3)c3ccccc32)cc1` yielded an ED50 of 16 mg/kg. For the same compound, in test [3], the inhibitory constant (Ki) was 36 nM.
In test [1], `O=C1/C(=C\c2ccccc2)c2ccccc2N1CCCN1CCN(c2cccc(Cl)c2)CC1` registered an ED50 of 27.5 mg/kg. Further, the Induction in test [4] turned out to be 0.1; in test [7], 0.2. For the same compound, the Incidence_count in test [5] worked out at 1.9; in test [6] it was 0.8. The Ki in test [2] came to 54 nM; in test [3], 56 nM.
Turning to `O=C1/C(=C/c2ccc(Cl)cc2)c2ccccc2N1CCCN1CCN(c2cccc(Cl)c2)CC1`, in test [1], the ED50 turned out to be 20 mg/kg. The inhibitory constant (Ki) in test [2] came to 1610 nM; in test [3], 32 nM.
Regarding `O=C1/C(=C\c2cccs2)c2ccccc2N1CCCN1CCN(c2cccc(Cl)c2)CC1`, the inhibition constant (Ki) in test [2] is 20500 nM; in test [3], 138 nM.
On to `O=C1/C(=C\c2ccc(Cl)cc2)c2ccccc2N1CCCN1CCN(c2cccc(Cl)c2)CC1`, for which the 50% effect level in test [1] (ED50) was put at a dose of 15 mg/kg. Moreover, the inhibitory constant (Ki) worked out at 204 nM in test [2] and 366 nM in test [3].
For the compound `O=C1/C(=C\c2cccnc2)c2ccccc2N1CCCN1CCN(c2cccc(Cl)c2)CC1`, the ED50 in test [1] was 27 mg/kg. Further, the Induction in test [4] and in test [8] was 0.1 each time. Moreover, the figures for the Incidence_count in test [5] and in test [6] were 2.3 and 0.9, respectively. In addition, the Ki in test [2] came out at 57 nM; in test [3] it was 20 nM.
On to `O=C1/C(=C/c2cccnc2)c2ccccc2N1CCCN1CCN(c2cccc(Cl)c2)CC1`, for which the ED50 in test [1] came out at 9.5 mg/kg. Moreover, the inhibition constant (Ki) in test [2] is 101 nM; in test [3] it was 7 nM.
`O=C1/C(=C/c2ccccc2)c2ccccc2N1CCCN1CCN(c2cccc(Cl)c2)CC1` came in with an ED50 in test [1] of 28.5 mg/kg. Further, the inhibition constant Ki in test [2] is 399 nM; in test [3], 38 nM.
For `O=C1Cc2ccccc2N1CCCN1CCN(c2cccc(Cl)c2)CC1`, in that order: 6.5 mg/kg, 29 nM and 25 nM.
In turn, `O=C(c1ccc(F)cc1)C1CCN(CCn2c(=O)[nH]c3ccccc3c2=O)CC1` [KETANSERIN] yielded an ED50 in test [1] of 0.12 mg/kg. The compound further showed an inhibitory constant (Ki) in test [2] of 1930 nM.
